Data taken from patent US12582643B2, “Tasquinimod or a pharmaceutically acceptable salt thereof for use in combination therapy” (ACTIVE BIOTECH AB, priority 2020, dated 2026).

Assays:
MM1.S cells = assay: Human MM1.S xenograft model of multiple myeloma, tasquinimod with lenalidomide (Example 2); assay type: in vivo; details: s.c. MM1.S in NSG mice; TQ 30 mg/kg/day drinking water; LEN 5 mg/kg oral gavage; from day 14; compared to control mice; FIG. 2
Protocol: The effect of tasquinimod in combination with lenalidomide was studied in a human MM1.S model of multiple myeloma. The MM1.S cells were established from a patient with IgA myeloma with characteristics typical of human myeloma cells (Greenstein et al., Exp Hematol. 2003 April; 31(4):271-82). MM1.S model was established by subcutaneous inoculation of 5×10^6 MM1.S cells into NSG mice. Treatment with tasquinimod (TQ), 30 mg/kg/day in the drinking water; lenalidomide (LEN), 5 mg/kg via oral gavage, 5 consecutive days with 2 days breaks until the endpoint, or the combination of tasquinimod and lenalidomide (TQ+LEN), started when the tumors were measurable (day 14 after tumor cell injection). Tumor size was monitored using a caliper and tumor volume was calculated. Differences between groups were evaluated by using two-way ANOVA; p-values: TQ vs TQ+LEN p=0.0001, LEN vs LEN+TQ p=0.0183. The results are illustrated in FIG. 2.

[1] = test system: Human NCI-H929 (H929) multiple myeloma cells; assay: H929 human xenograft model, tasquinimod with bortezomib or dexamethasone (Example 1); assay type: in vivo; details: s.c. H929 in NSG mice; TQ 30 mg/kg drinking water; VEL 0.5 mg/kg i.v. every 4 days; compared to control mice; FIG. 1
Protocol: Human NCI-H929 (H929) multiple myeloma cells were inoculated subcutaneously in NSG mice. Tumour-bearing mice were treated with vehicle (VC), tasquinimod (TQ) 30 mg/kg ad lib in the drinking water starting when there were palpable tumors (i.e. day 18 after tumor inoculation); bortezomib (VEL), 0.5 mg/kg, i.v. every 4 days; dexamethasone (DEX), 10 mg/kg, i.p., 5 days on, 2 days off; or the combinations (TQ+DEX) and (TQ+VEL), and. Statistics: Two-way ANOVA; p-values VC vs TQ p=0.0009, VC vs VEL p=0.041, VC vs DEX p=0.0081, DEX vs DEX+TQ ns, TQ vs TQ+VEL p=0.0002, VEL vs VEL+TQ p=0.0361. The results are illustrated in FIG. 1.

Compound	multiple myeloma growth (tumour volume), result in words (MM1.S cells)	multiple myeloma tumor growth (tumour area), result in words [1]
Nc1cccc2c1CN(C1CCC(=O)NC1=O)C2=O (stereo not shown) [lenalidomide, 3-(4-amino-1-oxoisoindolin-2-yl)piperidine-2,6-dione]	reduced the multiple myeloma growth	
COc1cccc2c1c(O)c(C(=O)N(C)c1ccc(C(F)(F)F)cc1)c(=O)n2C [tasquinimod, 4-hydroxy-5-methoxy-N,1-dimethyl-2-oxo-N-[4-(trifluoromethyl)phenyl]-1,2-dihydroquinoline-3-carboxamide]	reduced the multiple myeloma growth	reduced the multiple myeloma tumor growth
CC(C)C[C@H](NC(=O)[C@H](Cc1ccccc1)NC(=O)c1cnccn1)B(O)O [bortezomib, [(1R)-3-methyl-1-[[(2S)-3-phenyl-2-(pyrazine-2-carbonylamino)propanoyl]amino]butyl]-boronic acid]		reduced the multiple myeloma tumor growth
